We go through 20 molecules from patent US10246442B2, “4-Aminoquinazolin compounds as prolyl hydroxylase inhibitors” (JANSSEN PHARMACEUTICA NV, priority 2011, dated 2019).

For assay [1], the target named is PHD2181-417 (Homo sapiens (Human), UniProt Q9GZT9). Put plainly: PHD enzymatic assay ([14C]-succinic acid production). The assay is classed as biochemical. The settings on record: purified PHD2181-417, HIF-1α peptide substrate, 30 min pre-incubation; average of results. The procedure:
Expression and Purification of PHD2181-417
The human PHD2 expression construct containing amino acids 181-417 of GenBank Accession ID NM_022051 was cloned into a pBAD vector (Invitrogen), incorporating both an N-terminal histidine tag and a Smt3-tag, both of which are cleaved by Ulp1. Protein production was achieved by expression in BL21 cells grown in Terrific Broth containing 100 μg/ml ampicillin. Cell cultures were inoculated at 37° C. and grown to an OD600 of 0.8. Cultures were induced with 0.1% arabinose and grown overnight at 20° C. with continuous shaking at 225 rpm. Cells were then harvested by centrifugation and stored at −80° C. Cell pellets were suspended in Buffer A (50 mM Tris-HCl pH 7.2, 100 mM NaCl, 100 mM L-arginine, 1 mM TCEP, 0.05% (w/v) NP-40, 50 mM imidazole) followed by the addition of lysozyme and benzonase. Cells were lysed by sonication and the lysate was cleared by centrifugation (15,000 rpm, 90 min, 4° C.). The protein was purified by nickel affinity chromatography using a HisTrap Crude FF column (GE Healthcare). Samples were eluted in Buffer A with a 50-200 mM imidazole gradient. Cleavage of the Smt tag with Ulp1 protease was achieved via overnight incubation with dialyzing against Buffer A. The PHD2181-417 sample was then passed over a second HisTrap Crude FF column (GE Healthcare) to remove uncleaved protein. The flow-through was then dialyzed into 50 mM MES pH 6.0, 1 mM TCEP, 5 mM NaCl for ion exchange chromatography on a HiTrap SP Cation Exchange column (GE Healthcare). The PHD2181-417 protein was eluted with a 0-0.2 M NaCl gradient. Fractions were pooled for further purification by size exclusion chromatography over a Superdex 75 Size Exclusion Column (GE Healthcare). Final protein was concentrated to 4 mg/ml and dialyzed in 10 mM PIPES pH 7.0, 100 mM NaCl, 0.5 mM TCEP.
(10 μM, California Peptide Research Inc., Napa, Calif.), and [5-^14C]-2-oxoglutaric acid (50 mCi/mmol, Moravek Chemicals, Brea, Calif.) in reaction buffer (40 mM Tris-HCl, pH 7.5, 0.4 mg/ml catalase, 0.5 mM DTT, 1 mM ascorbate) for 10 minutes. Compounds were pre-incubated for 30 min before starting the reaction (all test compounds were dissolved at 10 mM in 100% DMSO (w/v) and were tested with final compound concentrations at 100 μM in 1% DMSO (w/v)). The reaction was stopped by addition of 50 μl of 70 mM H3PO4 and 50 μl of 500 mM NaH2PO4, pH 3.2. Detection of [^14C]-succinic acid was achieved by separating from [5-^14C]-2-oxoglutaric acid by incubating the reaction mixture with 100 μl of 0.16 M DNP prepared in 30% perchloric acid. Next, 50 μl of unlabeled 20 mM 2-oxoglutaric acid/20 mM succinic acid, serving as carrier for the radioactivity, was added to the mixture, and was allowed to proceed for 30 minutes at room temperature. The reaction was then incubated with 50 μl of 1 M 2-oxoglutaric acid for 30 additional minutes at room temperature to precipitate the excess DNP. The reaction was then centrifuged at 2800×g for 10 minutes at room temperature to separate [^14C]-succinic acid in the supernatant from the precipitated [^14C]-dinitrophenylhydrazone. Fractions of the supernatant (400 μI) were counted using a beta counter (Beckman Coulter, Fullerton, Calif.). Inhibition of PHD2181-417 activity was measured as a decrease in succinic acid production. The IC50 values were estimated by fitting the data to a three-parameter logistic function using GraphPad Prism, version 4.02 (Graph Pad Software, San Diego, Calif.).

Assay [2] has as its system Erythropoietin secretion, Hep-3B cells. Briefly: Cellular assay: EPO secretion in Hep-3B cells. Type of assay: cell-based. As to conditions: Homo sapiens, Hep3B, 100 μM compound, 24 hours, percent of EPO secretion relative to assay control compound 7-[(4-Chloro-phenyl)-(5-methyl-isoxazol-3-ylamino)-methyl]-quinolin-8-ol, read-out: Cellular % EPO Stimulation. The procedure:
Hep-3B cells (ATCC, Manassas, Va.) were plated in 96-well plates at 20,000 cells per well in 100 μl of DMEM containing 10% fetal bovine serum, 1% non-essential amino acids, 50 IU/mL of penicillin and 50 μg/mL of streptomycin (all cell culture reagents from Invitrogen, Carlsbad, Calif.). Twenty-four hours after plating, compounds were added and incubated for an additional 24 hours. All compounds were tested with final compound concentrations at 100 μM. Fifty microliters of the supernatant was then transferred to a human Hypoxia assay kit (Meso-Scale Discovery, Gaithersburg, Md.). Erythropoietin in the supernatant was detected according to the manufacturer's instructions as follows. EPO detection plates were blocked with 3% BSA in PBS overnight and 50 μl of the supernatant was incubated at room temperature in an orbital shaker for 2 h. Twenty-five microliters of 0.5 μg/ml anti-EPO detection antibody was added for 2 hours at room temperature in an orbital shaker. After 3 washes in PBS, 150 μl of 1× read buffer is added and the plate is then read on the MSD SECTOR instrument. Data was analyzed by determining the percent of EPO secretion in the presence of 100 μM compound relative to an assay control compound, 7-[(4-Chloro-phenyl)-(5-methyl-isoxazol-3-ylamino)-methyl]-quinolin-8-ol.

PHD2181-417, sequence (Q9GZT9 181-417): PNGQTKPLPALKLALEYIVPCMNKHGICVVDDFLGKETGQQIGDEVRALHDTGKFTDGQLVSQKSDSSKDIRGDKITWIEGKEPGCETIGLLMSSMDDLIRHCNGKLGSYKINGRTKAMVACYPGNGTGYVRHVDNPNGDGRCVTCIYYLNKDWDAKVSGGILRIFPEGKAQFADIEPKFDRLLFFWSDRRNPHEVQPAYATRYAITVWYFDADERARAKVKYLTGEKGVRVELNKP

As for `CC(C)c1ccc2nc(-n3cc(C(=O)O)cn3)nc(NC3CC3)c2c1` [Example 188, 1-(4-(cyclopropylamino)-6-isopropylquinazolin-2-yl)-1H-pyrazole-4-carboxylic acid], in assay [1], the “Enzyme pIC50” value came out at 6.0. Moreover, the activation at 100 µM in assay [2] worked out at 35%.
In the case of `O=C(O)c1cnn(-c2nc(N3CCOCC3)c3cc(OC4CCCCC4)c(Cl)cc3n2)c1` [Example 136, 1-(7-chloro-6-(cyclohexyloxy)-4-morpholinoquinazolin-2-yl)-1H-pyrazole-4-carboxylic acid], the “Enzyme pIC50” value in assay [1] worked out at 6.7. Also, the activation at 100 µM in assay [2] was 33%.
On to `CN(C)c1nc(-n2cc(C(=O)O)cn2)nc2cc(Oc3ccccc3)ccc12` [Example 77, 1-(4-(Dimethylamino)-7-phenoxyquinazolin-2-yl)-1H-pyrazole-4-carboxylic acid], for which the “Enzyme pIC50” value in assay [1] worked out at 7.4. In addition, in assay [2], the activation at 100 µM was found to be 75%.
As to `CN(C)c1nc(-n2cc(C(=O)O)cn2)nc2ccc(OC3CCCCC3)cc12` [Example 173, 1-(6-(cyclohexyloxy)-4-(dimethylamino)quinazolin-2-yl)-1H-pyrazole-4-carboxylic acid], in assay [1], the “Enzyme pIC50” value was 7.4. In addition, the activation at 100 µM in assay [2] amounted to 62%.
In the case of `CCCCN(CCCC)c1nc(-n2cc(C(=O)O)cn2)nc2cc(F)c(Oc3c(C)cccc3C)cc12` [Example 11, 1-[6-(2,6-Dimethyl-phenoxy)-4-dibutylamino-7-fluoro-quinazolin-2-yl]-1H-pyrazole-4-carboxylic acid], the “Enzyme pIC50” value in assay [1] is given as 7.1. In assay [2], the activation at 100 µM came out at 9%.
As to `CC(C)c1cc2c(N(C)C)nc(-n3cc(C(=O)O)cn3)nc2cc1Cl` [Example 161, 1-(7-chloro-4-(dimethylamino)-6-isopropylquinazolin-2-yl)-1H-pyrazole-4-carboxylic acid], the “Enzyme pIC50” value in assay [1] is listed as 7.4. Further, the activation at 100 µM in assay [2] was found to be 32%.
In the case of `CCN(C)c1nc(-n2cc(C(=O)O)cn2)nc2cc(Cl)c(C(C)C)cc12` [Example 164, 1-(7-chloro-4-(ethyl(methyl)amino)-6-isopropylquinazolin-2-yl)-1H-pyrazole-4-carboxylic acid], in assay [1], the “Enzyme pIC50” value was determined as 7.4. The activation at 100 µM in assay [2] amounted to 57%.
Regarding `CCN(CC)CCNc1nc(-n2cc(C(=O)O)cn2)nc2cc(F)c(Oc3c(C)cccc3C)cc12` [Example 10, 1-[4-(2-Diethylamino-ethylamino)-6-(2,6-dimethyl-phenoxy)-7-fluoro-quinazolin-2-yl]-1H-pyrazole-4-carboxylic acid], the “Enzyme pIC50” value in assay [1] amounted to 5.9. Moreover, in assay [2], the activation at 100 µM was found to be 13%.
On to `CN1CCCN(c2nc(-n3cc(C(=O)O)cn3)nc3ccc(Oc4ccc(Cl)cc4)cc23)CC1` [Example 71, 1-(6-(4-Chlorophenoxy)-4-(4-methyl-1,4-diazepan-1-yl)quinazolin-2-yl)-1H-pyrazole-4-carboxylic acid], for which, in assay [1], the “Enzyme pIC50” value came out at 6.7. In addition, the activation at 100 µM in assay [2] stood at 17%.
`CC(C)c1ccc2nc(-n3cc(C(=O)O)cn3)nc(N3CCOCC3)c2c1` [Example 184, 1-(4-(morpholino)-6-isopropylquinazolin-2-yl)-1H-pyrazole-4-carboxylic acid]: the “Enzyme pIC50” value in assay [1] worked out at 5.7. The activation at 100 µM in assay [2] came to 24%.
Regarding `O=C(O)c1cnn(-c2nc(N3CCCCCC3)c3cc(C4CCCCC4)ccc3n2)c1` [Example 37, 1-(4-(Azepan-1-yl)-6-cyclohexylquinazolin-2-yl)-1H-pyrazole-4-carboxylic acid], in assay [1], the “Enzyme pIC50” value is reported as 7.1. The activation at 100 µM in assay [2] worked out at 17%.
On to `O=C(O)c1cnn(-c2nc(N3CCSCC3)c3cc(-c4ccccc4)ccc3n2)c1` [Example 54, 1-(6-Phenyl-4-thiomorpholinoquinazolin-2-yl)-1H-pyrazole-4-carboxylic acid], for which the “Enzyme pIC50” value in assay [1] was determined as 6.8. Moreover, the activation at 100 µM in assay [2] was 25%.
For the molecule `O=C(O)c1cnn(-c2nc(N3CCCCC3)c3cc(C4CCCCC4)ccc3n2)c1` [Example 26, 1-(6-Cyclohexyl-4-(piperidin-1-yl)quinazolin-2-yl)-1H-pyrazole-4-carboxylic acid], the “Enzyme pIC50” value in assay [1] was found to be 7.1. Moreover, the activation at 100 µM in assay [2] was determined as 20%.
For the molecule `O=C(O)c1cnn(-c2nc(N3CCCCC3)c3ccc(Oc4ccccc4)cc3n2)c1` [Example 79, 1-(7-Phenoxy-4-(piperidin-1-yl)quinazolin-2-yl)-1H-pyrazole-4-carboxylic acid], the “Enzyme pIC50” value in assay [1] came out at 7.0. Also, the activation at 100 µM in assay [2] worked out at 38%.
Consider `Cc1cccc(C)c1Oc1cc2c(N3CCCCC3)nc(-n3cc(C(=O)O)cn3)nc2cc1F` [Example 4, 1-[6-(2,6-Dimethyl-phenoxy)-7-fluoro-4-piperidin-1-yl-quinazolin-2-yl]-1H-pyrazole-4-carboxylic acid], for which, in assay [1], the “Enzyme pIC50” value stood at 6.9. The activation at 100 µM in assay [2] was 17%.
With `CCN(CC)c1nc(-n2cc(C(=O)O)cn2)nc2cc(Oc3ccccc3)ccc12` [Example 83, 1-(4-(Diethylamino)-7-phenoxyquinazolin-2-yl)-1H-pyrazole-4-carboxylic acid], the “Enzyme pIC50” value in assay [1] is given as 7.7. The activation at 100 µM in assay [2] stood at 25%.
For `Cc1cccc(C)c1Oc1cc2c(NC3CCOCC3)nc(-n3cc(C(=O)O)cn3)nc2cc1F` [Example 16, 1-(6-(2,6-Dimethylphenoxy)-7-fluoro-4-((tetrahydro-2H-pyran-4-yl)amino)quinazolin-2-yl)-1H-pyrazole-4-carboxylic acid], the “Enzyme pIC50” value in assay [1] came out at 7.1. In assay [2], the activation at 100 µM amounted to 71%.
For the molecule `CN(C)c1nc(-n2cc(C(=O)O)cn2)nc2cc(F)c(OC3CCCCC3)cc12` [Example 101, 1-(7-fluoro-6-(cyclohexyloxy)-4-(dimethylamino)quinazolin-2-yl)-1H-pyrazole-4-carboxylic acid], the “Enzyme pIC50” value in assay [1] was determined as 7.1. Further, in assay [2], the activation at 100 µM stood at 85%.
The matching figures for `CCN(CC)c1nc(-n2cc(C(=O)O)cn2)nc2cc(Cl)c(C(C)C)cc12` [Example 162, 1-(7-chloro-4-diethylamino-6-isopropylquinazolin-2-yl)-1H-pyrazole-4-carboxylic acid]: 7.2 and 40%.
Turning to `O=C(O)c1cnn(-c2nc(N3CCCC3)c3cc(Oc4ccccc4)ccc3n2)c1` [Example 73, 1-(6-Phenoxy-4-(pyrrolidin-1-yl)quinazolin-2-yl)-1H-pyrazole-4-carboxylic acid], in assay [1], the “Enzyme pIC50” value turned out to be 7.2. For the same molecule, in assay [2], the activation at 100 µM worked out at 36%.
